According to patent US11819540B2, “Methods for treating and preventing neutrophil-derived net toxicity and thrombosis” (CHILDREN'S MEDICAL CENTER CORPORATION, priority 2011, dated 2023):

Key:
platelets = assay: Platelet aggregation (light transmission) with histones; type: cell-based, human; settings: EDTA 5 mM; heparin
Excerpt: (§1) For FIGS. 2A and 2B data are presented as mean±SEM, n=3; (Student's t test; *P<0.05; **P<0.01). […] A second band (arrowhead) may represent cross reactivity of the antibody or a proteolytic product. Data presented are representative of three independent experiments. FIG. 2D is a graph of the degree of aggregation of platelets treated with thrombin (open circles), human recombinant histone H3 (solid circles), EDTA (solid squares), and heparin (solid triangles). […] FIG. 2E is a graph of the degree of aggregation of platelets 3 minutes after addition of various histones or throbmin (Thr). […] (ANOVA; ***P<0.001 compared with histone H1).
The possibility of a direct interaction between platelets and histones was examined. […] Thrombin (0.5 U/mL; open circles in FIG. 2D) and […] served as a positive control in these experiments. Aggregation in response to histone H3 (FIG. 2D) and H4 (data not shown) was inhibited by EDTA (5 mM; solid squares in FIG. 2D) which excluded platelet agglutination caused by the positive charge of histones. […] Dissociating NETs and inhibiting histones could add to the antithrombotic effects of heparin.

NETs [1] = assay: Perfusion of blood over NETs in a flow chamber; type: cell-based, human
Protocol: The interaction between NETs and blood was studied using NETs isolated from human neutrophils. Blood samples were obtained from healthy donors who had not taken any medication for at least 10 day. Platelets and neutrophils were prepared from ACD-blood (Brill A, et al. Cardiovasc Res 2009 84(1):137-144) or EDTA-blood (Fuchs et al., J Cell Biol 2007 176:231-241), respectively. Neutrophils were seeded into flow chambers (μ-Slide IV, IBIDI) at 0.5 to 1×10^7 cells/mL. NET formation by the majority of cells was induced by phorbol 12-myristate 13-acetate (PMA, 50 nM, 4 h; Sigma Aldrich) or glucose oxidase (GO, 1 U/mL, 4 h; Worthington Biochem), as previously described (Brill A, et al. Cardiovasc Res 2009 84(1):137-144). PMA-induced NETs were used for initial observations. Other experiments were done with GO-induced NETs. NETs were washed and blocked with 1% BSA (Calbiochem). NET-DNA was stained with 1 μg/mL Hoechst 33258 (Invitrogen) for 15 min at 37° C. or SytoxGreen (1 μM, Invitrogen). Washed platelets were loaded with fluorescent Calcein-AM (2.5 μg/mL, 10 min, 37° C.; Invitrogen) or platelets in whole blood were labeled with Rhodamine 6G (5 μg/mL, 10 min, 37° C.; Sigma). Fluorescent images were acquired by a Zeiss Axiovert 200 inverted fluorescence microscope in conjunction with a monochrome camera (AxioCam MRm). Colors for fluorescence channels were assigned using Axiovision software. Fluorescent areas in images were quantified using ImageJ software.
(§2) NETs were induced on glass coverslips and perfusion was performed using a parallel-plate flow chamber system (Glycotech). NETs were perfused with platelets suspended in plasma at a shear rate of 200/s or 900/s and 37° C. using a peristaltic pump and observed to be avidly adhering platelets. NETs were washed and fixed with 2.5% glutaraldehyde and electron microscopy was performed. […] NETs were also perfused with ACD-anticoagulated blood supplemented with the irreversible thrombin inhibitor PPACK-Dihydrochloride (100 μM; Calbiochem) and recalcified by addition of 2 mM CaCl2. […] Cells firmly attached to collagen or NETs were lysed with 100 μL of 0.5% Triton×100 in water. Hemoglobin content was measured using the method of Drabkin (Drabkin PNAS 1971 68:609-13). To quantify platelets, Rhodamine-6G fluorescence of the sample was analyzed using a fluorometer.
Strings of NETs aligned in the direction of flow and, importantly, NETs were not a static surface but moved in three dimensions. Within 1 min from onset of perfusion, small platelet aggregates appeared on NETs. Platelet adhesion and aggregation on NETs increased over the next 9 min. […] Both platelet aggregates and NETs were removed by DNase and 10 minutes after the beginning of perfusion (FIGS. 1C and 1D). […] Thus, NETs were the only prothrombotic substrate in these experiments. FIGS. 1C and 1D show data that are representative of at least three independent experiments and are shown as mean±SEM, n=3. AU means arbitrary units.

NETs [2] = assay: Incubation of NETs under static conditions, immunodetection of released histone H2B; type: cell-based, human
Excerpt: as §1
The effect of heparin was also observed in medium, indicating a direct interaction of heparin with the NETs. Heparin has high affinity for histones (Pal et al., Thromb Res 1983 31:69-79) and releases histones from chromatin (Napirei et al. FEBS J 2009 276:1059-1073).

NETs [3] = assay: Binding of plasma VWF, fibronectin and fibrinogen to NETs; type: cell-based, human; settings: DNaseI 100 U/mL, 10 min after plasma incubation
Protocol: FIGS. 19A-19C depict graphs of the binding of von Willebrand factor (VWF), fibronectin, and fibrinogen to neutrophil extracellular traps (NETs). Human NETs were incubated with human plasma for 30 min, washed, and stained for VWF (19A), fibronectin (19B), or fibrinogen (19C). […] Data are presented as mean±SEM, n=3; (Student's t test); **P<0.01; ***P<0.001.
Whether NETs can concentrate plasma proteins that promote and stabilize thrombi (Frenette and Wagener NEJM 1996 335:43-5) was determined. […] After the activation, NETs were incubated with 1% BSA for 1 h at 37° C. NETs were washed and incubated with 50% plasma in PBS for 30 min at 37° C. Next, NETs were washed and treated with DNaseI (100 U/mL, 10 min). After another wash, cells were fixed with paraformaldehyde (2%, 1 h at 37° C.) and unspecific binding sites were blocked with BSA (3%, 1 h at 37° C.). Primary antibodies were used at 1 μg/mL in PBS supplemented with 1% BSA and 0.1% Triton×100 [mouse-antifibrinogen, rabbit-antifibronectin (both Sigma); rabbit-anti-VWF, (Chemicon)]. After incubation at 37° C. for 1 h, samples were washed with PBS and fluorescently conjugated secondary antibodies (Invitrogen) were applied at 10 μg/mL for 30 min at 37° C. […] The interaction of fibrinogen with NETs and its ability to promote fibrin deposition was determined. […]

collagen = assay: Perfusion of blood over collagen-coated flow chamber; type: cell-based; settings: blood supplemented with DNase
Protocol: as §2
When NETs were washed after perfusion with blood and observed macroscopically a red thrombus was detectable (FIG. 3A). Shown in FIG. 3A is a flow chamber coated with NETs after perfusion with blood. Light microscopy of a red thrombus (arrow) anchored on two strings (arrowheads). FIG. 3A is a composite of multiple photographs of the flow chamber. (Scale bar, 500 μm). […] RBC adhesion to NETs was prevented when blood was supplemented with DNase, confirming that RBCs were attached to NETs. […]

[4] = test system: blood clots (fibrin and NET scaffold); assay: Clot formation in recalcified blood with or without PAF-activated neutrophils (thrombolysis); type: cell-based, human; settings: tPA 25 μg/mL, DNase 100 U/mL
Protocol: Fibrin polymerization was induced in blood by recalcification and incubated either in the absence (medium) or presence of neutrophils preactivated by PAF to induce NET formation (neutrophils+PAF). Samples were treated with DNase to digest extracellular traps or tPA for fibrin digestion. […] (Scale bar, 1 cm.) The graph presents quantification of the clots by weighing. […] Data are presented as mean±SEM, n=4; (ANOVA; ***P<0.001). The first bar in each x-axis category represents the untreated samples, the second bar represents the samples treated with DNase, the third bar represents the samples treated with tPA, and the fourth bar represents the samples treated with tPA and DNase.
The relative susceptibility of NETs and fibrin to serve as scaffolds for blood clots to thrombolysis was examined (FIG. 20). Neutrophils were prestimulated with platelet-activating factor to release NETs with recalcified blood under stirring conditions. Two-hundred-fifty microliters of 5×10^6 neutrophils per milliliter in RPMI medium were activated by platelet activating factor (50 μM Calbiochem) at 37° C. under static conditions to induce NET formation. Control samples were 250 μL medium alone, 250 μL of unstimulated neutrophils, or 250 μL of 50 μM PAF in medium. After 10 min, 250 μL of recalcified (40 mM CaCl2) ACD anticoagulated blood was added. […] Images were acquired and the clot was determined. […]

[5] = blood supplemented with DNase at the beginning of the perfusion

Row | Compound | platelet aggregation in response to histone H3 and H4 in presence of inhibitor (platelets) | platelet aggregates on NETs (NETs [1]; heparin 10 μg/mL) | NETs (NET-DNA) (NETs [1]; heparin 100 μg/mL, perfusion with heparinized blood, 10 min) | release of histones (H2B) from NETs (NETs [2]) | binding of VWF, fibronectin and fibrinogen to NETs (NETs [3]) | platelet adhesion to collagen-coated chambers (collagen) | NETs and adherent platelets after DNase addition (NETs [1]; DNase 100 U/mL added 10 min after beginning of perfusion) | RBC adhesion to NETs (NETs [1]; blood supplemented with DNase) | platelet adhesion to NETs (NETs [1]; blood supplemented with DNase) | NETs (NET-DNA area) (NETs [1]; [5]) | platelet aggregates on NETs (NETs [1]; [5]) | clot formation ([4]; absence of activated neutrophils (medium)) | clot formation / clot size ([4]; presence of PAF-activated neutrophils)
1 | O=C(O)CN(CCN(CC(=O)O)CC(=O)O)CC(=O)O [EDTA, ethylenediaminetetraacetic acid] | inhibited | – | – | – | – | – | – | – | – | – | – | – | –
2 | Heparin [reference compound] | completely abolished platelet response to these histones | removed platelet aggregates from NETs | almost completely dismantled NETs | released histones to the culture supernatant | – | – | – | – | – | – | – | – | –
3 | DNase | – | – | – | released histones to the culture supernatant | binding to NETs in a DNase-sensitive manner | had no effect | simultaneously removed NETs and platelets | prevented | prevented platelet adhesion to NETs | NETs were degraded rapidly | platelet aggregates did not form | had no effect | did not change
